Results as given in the CheMixHub ionic liquid set.

Assay: xn = mol fraction of the nth substance listed

O=[N+]([O-])[O-].[Li+] + CC[NH3+].O=[N+]([O-])[O-]
Conditions | electrical conductivity [S/m] | viscosity [mPa·s]
223 K, 100 kPa, x1 = 0.09755 | 0.01 | –
223 K, 100 kPa, x1 = 0.1778 | 0.005 | –
233 K, 100 kPa, x1 = 0.09755 | 0.039 | –
233 K, 100 kPa, x1 = 0.1778 | 0.022 | –
243 K, 100 kPa, x1 = 0.09755 | 0.104 | –
243 K, 100 kPa, x1 = 0.1778 | 0.065 | –
253 K, 100 kPa, x1 = 0.09755 | 0.224 | –
253 K, 100 kPa, x1 = 0.1778 | 0.151 | –
263 K, 100 kPa, x1 = 0.09755 | 0.414 | –
263 K, 100 kPa, x1 = 0.1778 | 0.295 | –
273 K, 100 kPa, x1 = 0.09755 | 0.682 | –
273 K, 100 kPa, x1 = 0.1778 | 0.512 | –
283 K, 100 kPa, x1 = 0.09755 | 1.03 | –
283 K, 100 kPa, x1 = 0.1778 | 0.81 | –
288.15 K, 100 kPa, x1 = 0.09755 | – | 56.2
288.15 K, 100 kPa, x1 = 0.1778 | – | 68.6
293 K, 100 kPa, x1 = 0.09755 | 1.47 | –
293 K, 100 kPa, x1 = 0.1778 | 1.19 | –
293.15 K, 100 kPa, x1 = 0.09755 | – | 46.97
293.15 K, 100 kPa, x1 = 0.1778 | – | 56.13
298.15 K, 100 kPa, x1 = 0.09755 | – | 39.49
298.15 K, 100 kPa, x1 = 0.1778 | – | 46.25
298.15 K, 101 kPa, x2 = 0.8222 | – | 68.1
303 K, 100 kPa, x1 = 0.09755 | 1.99 | –
303 K, 100 kPa, x1 = 0.1778 | 1.67 | –
303.15 K, 100 kPa, x1 = 0.09755 | – | 33.4
303.15 K, 100 kPa, x1 = 0.1778 | – | 38.36
308.15 K, 100 kPa, x1 = 0.09755 | – | 28.4
308.15 K, 100 kPa, x1 = 0.1778 | – | 32.01
313 K, 100 kPa, x1 = 0.09755 | 2.58 | –
313 K, 100 kPa, x1 = 0.1778 | 2.22 | –
313.15 K, 100 kPa, x1 = 0.09755 | – | 24.27
313.15 K, 100 kPa, x1 = 0.1778 | – | 26.86
323 K, 100 kPa, x1 = 0.09755 | 3.23 | –
323 K, 100 kPa, x1 = 0.1778 | 2.86 | –
333 K, 100 kPa, x1 = 0.09755 | 3.95 | –
333 K, 100 kPa, x1 = 0.1778 | 3.58 | –
343 K, 100 kPa, x1 = 0.09755 | 4.73 | –
343 K, 100 kPa, x1 = 0.1778 | 4.36 | –
353 K, 100 kPa, x1 = 0.09755 | 5.54 | –
353 K, 100 kPa, x1 = 0.1778 | 5.21 | –
363 K, 100 kPa, x1 = 0.09755 | 6.4 | –
363 K, 100 kPa, x1 = 0.1778 | 6.11 | –
373 K, 100 kPa, x1 = 0.09755 | 7.29 | –
373 K, 100 kPa, x1 = 0.1778 | 7.06 | –

F[B-](F)(F)F.[Li+] + CCCC[n+]1ccn(C)c1.[I-]
electrical conductivity [S/m], 101 kPa
Conditions | 298.15 K | 308.15 K | 323.15 K
x1 = 0.1 | – | 0.0454 | –
x1 = 0.2 | 0.0449 | – | 0.079

CCCCCCCC[P+](CC)(CC)CC.O=[N+]([O-])c1cn[n-]c1 + COCCOCCOCCOCCOC
100 kPa
Conditions | viscosity [mPa·s]
278.15 K, x2 = 0.503 | 78
283.15 K, x2 = 0 | 868
283.15 K, x2 = 0.404 | 97
288.15 K, x2 = 0 | 578
288.15 K, x2 = 0.102 | 327
303.15 K, x2 = 0.051 | 170
308.15 K, x2 = 0.199 | 69
313.15 K, x2 = 0.199 | 55
318.15 K, x2 = 0 | 94

COP(=O)([O-])OC.Cn1cc[n+](C)c1 + CCCO + O
100 kPa
Conditions | viscosity [mPa·s]
298.15 K, x2 = 0.249, x3 = 0.2451 | 90
323.15 K, x2 = 0.15, x3 = 0.1498 | 81
333.15 K, x2 = 0.1, x3 = 0.0998 | 85
